Source: publication PMC6838048, “A Cell-Free Approach Based on Phospholipid Characterization for Determination of the Cell Specific Unbound Drug Fraction (fu,cell)” (Pharmaceutical Research, 2019)

Key:
Format in all cases: in vitro ADME
[1] = fu,cell by equilibrium dialysis of cell homogenate, primary human hepatocytes; conditions: primary human hepatocyte homogenate, dialysis 4 h 37°C, 10 million cells/mL homogenate, read-out: fu,HH Geomean
Protocol: (§1) fu,cell was measured in cassette-mode as previously described with minor modifications ([9]). Briefly, 10 million cells/mL were suspended in HBSS buffered with 10 mM HEPES and homogenized on ice by sonication (VCX 750 Sonicator, 3 mm probe, 20% intensity, 10 s). Up to 8 compounds were combined randomly and spiked into the homogenate for a final concentration of 0.5 μM. Equilibrium dialysis was performed in a Rapid Equilibirum device (Thermo Fisher Scientific) against blank HBSS buffered with 10 mM HEPES, for 4 h at 37°C on an orbital shaker at 900 rpm. Stability controls were kept at 4° and 37°C for the duration of the experiment. The concentration in both dialysis chambers was quantified by extracting the compound with acetonitrile/water (60/40) containing internal standard. Matrixes were matched with blank buffer or cell homogenate, respectively. LC-MS/MS parameters are available in Table S9. All experiments were carried out in triplicates and at least at two independent occasions.
(§2) The unbound fraction in the cell homogenate (fu,hom) was determined according to Eq. (1):1 fu,hom=Cbuffer/Chom and the fraction of unbound compound in the cell (fu,cell) was calculated by correcting for homogenate dilution according to Eq. (2):2 fu,cell=1/DP∙1/fu,hom−1+1 where the dilution constant DP was calculated using Eq. (3), assuming the Vcell to be equal to 6.5 μL/mg protein ([6],[10]). Protein content in the cell homogenates was determined at each experiment using the BCA Protein Assay Reagent Kit (Thermo Fisher Scientific Inc.).3 DP=1/Vcell

[2] = fu,cell by equilibrium dialysis of cell homogenate, LLC-PK1; conditions: pig, dialysis 4 h 37°C, 10 million cells/mL homogenate, read-out: fu,LLCPK1 Geomean
Protocol: as §1, §2

[3] = fu,PL from membrane affinity to PL-covered silica beads, PS; conditions: silica beads covered with phosphatidylserine (PS), Transil; beads coated with pure PS, 15 min incubation; read-out: fu,PS Geomean
Protocol: (§3) f u,PL was derived from membrane affinity measurements to beads covered with PLs as previously described ([6]).
(§4) Cbuffer was quantified by LC-MS/MS in samples of the supernatant that was obtained after 15 min incubation time on an orbital shaker at 1000 rpm and subsequent separation from the beads by centrifugation at 750 x g. […] Unspecific binding was evaluated by incubations into wells without added lipids.

[4] = fu,cell by equilibrium dialysis of cell homogenate, HEK293; conditions: human, dialysis 4 h 37°C, 10 million cells/mL homogenate, read-out: fu,HEK293 Geomean
Protocol: as §1, §2

[5] = fu,cell by equilibrium dialysis of cell homogenate, A549; conditions: human, dialysis 4 h 37°C, 10 million cells/mL homogenate, read-out: fu,A549 Geomean
Protocol: as §1, §2

[6] = fu,PL from membrane affinity to PL-covered silica beads, PE; conditions: beads coated with pure PE, 15 min incubation; read-out: fu,PE Geomean
Protocol: as §3, §4

[7] = fu,PL from membrane affinity to PL-covered silica beads, mixed beads; conditions: for fraction unbound at 15 min: mixed beads PC:PE:PS:PI 52:22:12:14 mol%, 15 min incubation, read-out: fu,mixed bead Geomean; for fu,PL (in words): examples of Fig. 3c, individual PL beads and mixed beads
Protocol: as §3, §4

[8] = fu,cell by equilibrium dialysis of cell homogenate, MDCK; conditions: dog, dialysis 4 h 37°C, 10 million cells/mL homogenate, read-out: fu,MDCK Geomean
Protocol: as §1
(§5) (3), assuming the Vcell to be equal to 6.5 μL/mg protein ([6],[10]). Protein content in the cell homogenates was determined at each experiment using the BCA Protein Assay Reagent Kit (Thermo Fisher Scientific Inc.).3 DP=1/Vcell

[9] = fu,cell by equilibrium dialysis of cell homogenate, Caco-2; conditions: human, Caco-2 cell homogenate, dialysis 4 h 37°C, 10 million cells/mL homogenate, read-out: fu,Caco-2 Geomean
Protocol: as §1, §5

[10] = fu,cell by equilibrium dialysis of cell homogenate, HL60; conditions: human, dialysis 4 h 37°C, 10 million cells/mL homogenate, read-out: fu,HL60 Geomean
Protocol: as §1, §2

[11] = fu,cell by equilibrium dialysis of cell homogenate, K562; conditions: human, dialysis 4 h 37°C, 10 million cells/mL homogenate, read-out: fu,K562 Geomean
Protocol: as §1, §2

[12] = fu,PL from membrane affinity to PL-covered silica beads, PC; conditions: silica beads covered with phosphatidylcholine (PC), Transil; beads coated with pure PC, 15 min incubation; read-out: fu,PC Geomean
Protocol: as §3, §4

Structure (SMILES) | fraction unbound at 4 h, 0.5 μM [1] | fraction unbound at 4 h, 0.5 μM [2] | fraction unbound at 15 min [3] | fraction unbound at 4 h, 0.5 μM [4] | fraction unbound at 4 h, 0.5 μM [5] | fraction unbound at 15 min [6] | fraction unbound at 15 min [7] | fraction unbound at 4 h, 0.5 μM [8] | fraction unbound at 4 h, 0.5 μM [9] | fraction unbound at 4 h, 0.5 μM [10] | fraction unbound at 4 h, 0.5 μM [11] | fraction unbound at 15 min [12] | fu,PL (in words) [7]
COc1ccccc1Oc1c(NS(=O)(=O)c2ccc(C(C)(C)C)cc2)nc(-c2ncccn2)nc1OCCO [Bosentan] | 0.0337 | 0.0538 | 0.0014 | 0.0634 | 0.0519 | 0.0019 | 0.004 | 0.036 | 0.0335 | 0.0579 | 0.0856 | 0.002 | 
Cn1c(=O)c2c(ncn2C)n(C)c1=O [Caffeine] | 0.248 | 0.115 | 0.0025 | 0.248 | 0.0398 | 0.0154 | 0.0145 | 0.0593 |  |  | 0.214 | 0.0096 | 
CCOc1nc2cccc(C(=O)O)c2n1Cc1ccc(-c2ccccc2-c2nnn[nH]2)cc1 [Candesartan] | 0.247 | 0.118 | 0.0018 | 0.246 | 0.103 | 0.0055 | 0.0081 | 0.0968 | 0.0945 | 0.205 | 0.948 | 0.0174 | 
OC(Cn1cncn1)(Cn1cncn1)c1ccc(F)cc1F [Fluconazole] | 0.737 | 0.159 | 0.0045 | 0.1 | 0.159 | 0.0081 | 0.028 | 0.229 | 0.456 | 0.646 | 1 | 0.0428 | 
CC[C@H](C)C(=O)O[C@H]1C[C@@H](C)C=C2C=C[C@H](C)[C@H](CC[C@@H]3C[C@@H](O)CC(=O)O3)[C@H]21 [Lovastatin] | 0.0013 | 0.002 | 0.0002 | 0.0074 | 0.0012 | 0.0011 | 0.0002 | 0.0045 | 0.0024 | 0.011 | 0.0055 | 0.0004 | 
Cc1ccccc1N1C(=O)c2cc(S(N)(=O)=O)c(Cl)cc2NC1C (stereo not shown) [Metolazone] | 0.0709 | 0.144 | 0.0093 | 0.226 | 0.416 | 0.0085 | 0.0069 | 0.37 | 0.133 | 0.445 | 0.485 | 0.0059 | 
CCC(C)(C)C(=O)O[C@H]1C[C@@H](C)C=C2C=C[C@H](C)[C@H](CC[C@@H]3C[C@@H](O)CC(=O)O3)[C@H]21 [Simvastatin] |  | 0.0009 | 0.0001 | 0.0015 | 0.0002 | 0.0001 | 0.0001 |  |  | 0.0023 | 0.0032 | 0.001 | 

Next, values leading:

fraction unbound at 4 h, 0.5 μM [1] | fraction unbound at 4 h, 0.5 μM [2] | fraction unbound at 15 min [3] | fraction unbound at 4 h, 0.5 μM [4] | fraction unbound at 4 h, 0.5 μM [5] | fraction unbound at 15 min [6] | fraction unbound at 15 min [7] | fraction unbound at 4 h, 0.5 μM [8] | fraction unbound at 4 h, 0.5 μM [9] | fraction unbound at 4 h, 0.5 μM [10] | fraction unbound at 4 h, 0.5 μM [11] | fraction unbound at 15 min [12] | fu,PL (in words) [7] | Structure (SMILES)
0.0824 | 0.0783 | 0.0006 | 0.0824 | 0.0793 | 0.0032 | 0.0044 | 0.176 | 0.0777 |  | 0.356 | 0.0014 |  | CCN(CC)CCCC(C)Nc1ccnc2cc(Cl)ccc12 (stereo not shown) [Chloroquine]
0.944 | 0.6 | 0.0089 | 0.571 | 0.376 | 0.0109 | 0.0343 | 0.349 | 0.654 | 0.54 | 0.638 | 0.0534 | high | CCCNC(=O)NS(=O)(=O)c1ccc(Cl)cc1 [Chlorpropamide]
0.0445 | 0.0588 | 0.0016 | 0.0637 | 0.0287 | 0.0083 | 0.0034 | 0.069 | 0.1 | 0.206 | 0.119 | 0.0023 |  | COc1ccc([C@@H]2Sc3ccccc3N(CCN(C)C)C(=O)[C@@H]2OC(C)=O)cc1 [Diltiazem]
 | 0.566 | 0.0019 | 0.196 | 0.922 | 0.0126 | 0.0084 | 0.35 | 0.566 | 0.676 | 1 | 0.008 | intermediate | COC(=O)CCc1ccc(OCC(O)CNC(C)C)cc1 (stereo not shown) [Esmolol]
 | 0.0389 | 0.0034 | 0.0403 | 0.0161 | 0.0067 | 0.002 | 0.0338 | 0.0245 | 0.0569 | 0.0838 | 0.001 |  | CC(C)n1c(/C=C/C(O)CC(O)CC(=O)O)c(-c2ccc(F)cc2)c2ccccc21 (stereo not shown) [Fluvastatin]
0.0044 | 0.0047 | 0.0011 | 0.0155 | 0.0056 | 0.0026 | 0.0011 | 0.0119 | 0.0122 | 0.0168 | 0.0234 | 0.0007 | low | Cc1cccc(C)c1OCC(=O)N[C@@H](Cc1ccccc1)[C@@H](O)C[C@H](Cc1ccccc1)NC(=O)[C@H](C(C)C)N1CCCNC1=O [Lopinavir]
0.374 | 0.34 | 0.0081 | 0.0906 | 0.0881 | 0.0099 | 0.0148 | 0.202 | 0.174 | 0.339 | 1 | 0.0101 |  | COCCc1ccc(OCC(O)CNC(C)C)cc1 (stereo not shown) [Metoprolol]
